Where two headings read alike, the source gives them in different places.
Columns and labels:
[1] = topical; cited from earlier work
[2] = oral dose of Glucosamine Sulfate, humans; cited from earlier work
[3] = test system: skin's Hyaluronic Acid; assay: Live clinical human experiments, one side of face, neck and hands treated, other side base (placebo) lotion; format: in vivo; settings: 5% concentration, topical, versus placebo lotion on other side
Excerpt: In examining the prior art we found our patent to be unique: • 1. U.S. Pat. No. 5,391,373 (Mausner) is distinguished by its failure to use an adequate amount of Glucosamine in order to achieve the substrate concentration for the enzyme Hyaluronate Synthase to produce a sufficient quantity and concentration of Hyaluronic Acid necessary to achieve any meaningful change in the texture of the skin, including its ability to hold onto sufficient water to increase internal hydration. Their patent claims: “1. (d) about 0.001% to 0.1% of a carbohydrate-based complex comprising dextran, glycine, and Glucosamine;”. […] Their minimum range amount claimed is calculated as: 0.001% (0.00001) times 5% (0.05%) equals 0.0000005, which is 0.00005% and equals 5 one-hundred-thousandths of a gram per 100 milliliters, and is totally inconsequential for having any positive effect. […]

[4] = oral, dog; cited from earlier work
[5] = simple diffusion, not active transport; cited from earlier work
[6] = test system: solar lentinges; settings: cited from earlier work
[7] = topical; cited from earlier work; remark: listed apart in the source

## N[C@H]1C(O)O[C@H](CO)[C@@H](O)[C@@H]1O.O=S(=O)(O)O (stereo partly drawn) [Glucosamine Sulfate]
[1]
  absorption through the skin: much better absorbed into the body via the skin
[2]
  absorbed: about 90%
[3]
  production of the skin's Hyaluronic Acid: markedly enhancing

## N[C@@H]1[C@@H](O)[C@H](O)[C@@H](CO)O[C@@H]1O [Glucosamine, 2-amino-2-deoxy-alpha-D-glucose]
[4]
  absorbed: 87%

## CC(=O)N[C@H]1C(O)O[C@H](CO)[C@@H](O)[C@@H]1O (stereo partly drawn) [N-acetylglucosamine, N-acetyl-D-Glucosamine]
[1]
  absorption through the skin: very poorly absorbed through the skin
[5]
  oral absorption: not well absorbed orally

## Ascorbyl Glucosamine
[6]
  effect on skin ("liver spot") pigmentation: no positive effects

## hyaluronic acid [250,000 Dalton sized hyaluronic acid]
[7]
  absorption into the skin: very low percentage

## hyaluronic acid [600,000 Dalton molecular weight hyaluronic acid]
[7]
  absorption into the skin: only a few percent

From patent publication US20070092469A1, “Topically applied Glucosamine Sulfate and all its related, precursor, and derivative compounds significantly increases the skin's natural produciton of hyaluronic acid for the rejuvenation of healthier younger-looking skin; while PhosphatidylCholine is required to replace its deficiency caused by …” (priority 2005, published 2007)
